Measurements: patent US8012961B2, “Tricyclic antibiotics” (Actelion Pharmaceutical Ltd., priority 2008, dated 2011)
In brackets after ≈: the same amount, converted by molar mass.

Each molecule was assayed on M. catarrhalis A894 (assay: MIC determination by microdilution in cation-adjusted Mueller-Hinton Broth (NCCLS)). Details: Moraxella catarrhalis, A894, microdilution method, pH of the test medium 7.2-7.3.
Type: cell-based
Method: These assays have been performed following the description given in “Methods for dilution Antimicrobial Susceptibility Tests for Bacteria that Grow Aerobically, 4th ed.; Approved standard: NCCLS Document M7-A4; National Committee for Clinical Laboratory Standards: Villanova, Pa., USA, 1997”. Minimal inhibitory concentrations (MICs; mg/l) were determined in cation-adjusted Mueller-Hinton Broth by a microdilution method following NCCLS guidelines (National Committee for Clinical Laboratory Standards. Methods for Dilution Antimicrobial Susceptibility). The pH of the test medium was 7.2-7.3. All Example compounds were tested against several Gram positive and Gram negative bacteria such as S. aureus, E. faecalis, S. pneumoniae, M. catarrhalis or E.coli.

Row | MIC | Structure (SMILES)
1 | ≤ 0.031 µg/mL | O=C1COc2ccc(CNC3CCN(CC4COc5cnc6ccc(F)cc6c54)CC3)nc2N1 (racemic) [Example 35, rac-6-{[1-(8-fluoro-1,2-dihydro-furo[2,3-c]quinolin-1-ylmethyl)-piperidin-4-ylamino]-methyl}-4H-pyrido[3,2-b][1,4]oxazin-3-one]
2 | ≤ 0.031 µg/mL | COc1ccc2ncc3c(c2n1)C(CN1CC[C@@H](NCc2ccc4c(n2)NC(=O)CS4)[C@@H](F)C1)CO3 (relative stereo) [Example 17, 6-{[(3S*,4R*)-3-fluoro-1-((1RS)-8-methoxy-1,2-dihydro-3-oxa-5,9-diaza-cyclopenta[a]naphthalen-1-ylmethyl)-piperidin-4-ylamino]-methyl}-4H-pyrido[3,2-b][1,4]thiazin-3-one]
3 | ≤ 0.031 µg/mL | COc1ccc2ncc3c(c2n1)C(CN1CC[C@@H](NCc2ccc4c(n2)NC(=O)CO4)[C@@H](F)C1)CO3 (relative stereo) [Example 18, 6-{[(3S*,4R*)-3-fluoro-1-((1RS)-8-methoxy-1,2-dihydro-3-oxa-5,9-diaza-cyclopenta[a]naphthalen-1-ylmethyl)-piperidin-4-ylamino]-methyl}-4H-pyrido[3,2-b][1,4]oxazin-3-one]
4 | ≤ 0.031 µg/mL | COc1ccc2ncc3c(c2n1)C(CN1CC[C@@H](NCc2cc4c(cn2)OCCO4)[C@@H](F)C1)CO3 (relative stereo) [Example 19, (2,3-dihydro-[1,4]dioxino[2,3-c]pyridin-7-ylmethyl)-[(3S*,4R*)-3-fluoro-1-((1RS)-8-methoxy-1,2-dihydro-3-oxa-5,9-diaza-cyclopenta[a]naphthalen-1-ylmethyl) -piperidin-4-yl]-amine]
5 | ≤ 0.031 µg/mL | COc1ccc2ncc3c(c2n1)C(CN1CC[C@H](NCc2ccc4c(n2)NC(=O)CS4)[C@H](CO)C1)CO3 (relative stereo) [Example 36, 6-{(3R*,4S*)-[3-hydroxymethyl-1-((1RS)-8-methoxy-1,2-dihydro-3-oxa-5,9-diaza-cyclopenta[a]naphthalen-1-ylmethyl)-piperidin-4-ylamino]-methyl}-4H-pyrido[3,2-b][1,4]thiazin-3-one]
6 | ≤ 0.031 µg/mL | COc1ccc2ncc3c(c2n1)C(CN1CC[C@H](NCc2ccc4c(n2)NC(=O)CO4)[C@H](CO)C1)CO3 (relative stereo) [Example 37, 6-{(3R*,4S*)-[3-hydroxymethyl-1-((1RS)-8-methoxy-1,2-dihydro-3-oxa-5,9-diaza-cyclopenta[a]naphthalen-1-ylmethyl)-piperidin-4-ylamino]-methyl}-4H-pyrido[3,2-b][1,4]oxazin-3-one]
7 | 0.063 µg/mL (≈ 0.127 µM) | COc1ccc2ncc3c(c2n1)C(CN1CC[C@H](NCc2cc4c(nn2)OCCO4)[C@H](CO)C1)CO3 (relative stereo) [Example 38, (3R*,4S*)-[4-[(6,7-dihydro-[1,4]dioxino[2,3-c]pyridazin-3-ylmethyl)-amino]-1-((1RS)-8-methoxy-1,2-dihydro-3-oxa-5,9-diaza-cyclopenta[a]naphthalen-1-ylmethyl)-piperidin-3-yl]-methanol]
8 | ≤ 0.031 µg/mL | COc1ccc2ncc3c(c2n1)[C@H](CN1CCC(NCc2ccc4c(n2)NC(=O)CS4)CC1)CO3 (single isomer, unassigned) [Example 16A]
9 | ≤ 0.031 µg/mL | COc1ccc2ncc3c(c2n1)[C@@H](CN1CCC(NCc2ccc4c(n2)NC(=O)CS4)CC1)CO3 (single isomer, unassigned) [Example 16B]
10 | ≤ 0.031 µg/mL | COc1ccc2ncc3c(c2n1)[C@@H](CN1CCC(NCc2cc4c(cn2)OCCO4)C(CO)C1)CO3 (stereo partly drawn) [Example 40, [4-[(2,3-dihydro-[1,4]dioxino[2,3-c]pyridin-7-ylmethyl)-amino]-1-((S)-8-methoxy-1,2-dihydro-3-oxa-5,9-diaza-cyclopenta[a]naphthalen-1-ylmethyl)-piperidin-3-yl]-methanol]

Same assay, conditions: microdilution method, pH of the test medium 7.2-7.3

Row | MIC M. catarrhalis A894 | Structure (SMILES)
11 | ≦0.031 mg/l | COc1ccc2ncc3c(c2n1)C(CN1CCC[C@@H](CNCc2ccc4c(n2)NC(=O)CO4)C1)CO3 (mixture of isomers) [Example 27]
12 | ≦0.031 mg/l | COc1ccc2ncc3c(c2n1)C(CN1CCC[C@@H](CNCc2cc4c(cn2)OCCO4)C1)CO3 (mixture of isomers) [Example 29]
13 | ≦0.031 mg/l | COc1ccc2ncc3c(c2n1)C(CN1CCC[C@@H](CNC/C=C/c2cc(F)ccc2F)C1)CO3 (mixture of isomers) [Example 30]
14 | ≦0.031 mg/l | COc1ccc2ncc3c(c2n1)C(CN1CC2C(C1)C2NCc1ccc2c(n1)NC(=O)CO2)CO3 (racemic) [Example 32, 6-{[(1α,5α,6α)-3-((1RS)-8-methoxy-1,2-dihydro-3-oxa-5,9-diaza-cyclopenta[a]naphthalen-1-ylmethyl)-3-aza-bicyclo[3.1.0]hex-6-ylamino]-methyl}-4H-pyrido[3,2-b][1,4]oxazin-3-one]
15 | ≦0.031 mg/l | COc1ccc2ncc3c(c2n1)C(CN1CC2C(C1)C2NCc1cc2c(cn1)OCCO2)CO3 (racemic) [Example 33, (2,3-dihydro-[1,4]dioxino[2,3-c]pyridin-7-ylmethyl)-[(1α,5α,6α)-3-((1RS)-8-methoxy-1,2-dihydro-3-oxa-5,9-diaza-cyclopenta[a]naphthalen-1-ylmethyl)-3-aza-bicyclo[3.1.0]hex-6-yl]amine]
16 | ≦0.031 mg/l | COc1ccc2ncc3c(c2n1)C(CN1CC2C(C1)C2NCc1ccc2c(n1)NC(=O)CS2)CO3 (racemic) [Example 34, 6-{[(1α,5α,6α)-3-((1RS)-8-methoxy-1,2-dihydro-3-oxa-5,9-diaza-cyclopenta[a]naphthalen-1-ylmethyl)-3-aza-bicyclo[3.1.0]hex-6-ylamino]-methyl}-4H-pyrido[3,2-b][1,4]thiazin-3-one]
